Test results as given in US11149011B2, “Compounds and methods for IDO and TDO modulation, and indications therefor” (Plexxikon Inc., priority 2018, dated 2021).

Experiments:
[1] = molecular target: T1, TDO-expressing HEK293 cell clones (Homo sapiens, UniProt P48775); experiment: Cell based kynurenine assay, TDO-expressing HEK293 cell clones; conditions: HEK293 cells, 24 hours of incubation, geometric mean; read-out: HEK293 TDO Kynurenine GMean IC50 (μM) (Cellular Assay)
T1 construct: expressed in transfected cells; host or cells: HEK293
Summary of the method: (§1)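 HEK293 clones stably transfected with CMV-driven human IDO1 or human TDO were seeded at 2.5×10^4 cells/well and treated with serial compound dilutions for 24 hours. Supernatant kynurenine was measured. % inhibition versus DMSO-cell and media-only controls was fitted by nonlinear regression to give IC50.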

TDO = molecular target: T2, TDO (Homo sapiens, UniProt P48775); experiment: TDO enzymatic assay; conditions: geometric mean; read-out: TDO GMean: IC50 (μM) (Biochemical Assay)
T2 construct: His tag (N); made in house; host or cells: E. coli
Summary of the method: (§2)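 N-His human enzymes from E. coli in 50 mM sodium phosphate pH 6.5 with ascorbate, catalase, Tween 20. IDO: 6 nM enzyme, 10 μM L-Trp, 5 μM methylene blue, 20 min RT; TDO: 1 nM enzyme, 350 μM L-Trp, 0.4 μM methylene blue, 70 min RT. TCA stop, kynurenine measured; IC50 by nonlinear regression.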

IDO1 = molecular target: T3, IDO1 (Homo sapiens, UniProt P14902); experiment: IDO enzymatic assay; assay type: biochemical; conditions: geometric mean; read-out: IDO1 GMean: IC50 (μM) (Biochemical Assay)
T3 construct: His tag (N); made in house; host or cells: E. coli
Summary of the method: as §2

[2] = molecular target: T4, IDO1-expressing HEK293 cell clones (Homo sapiens, UniProt P14902); experiment: Cell based kynurenine assay, IDO1-expressing HEK293 cell clones; conditions: HEK293 cells, 24 hours of incubation, geometric mean; read-out: HEK293 IDO1 Kynurenine GMean IC50 (μM) (Cellular Assay)
T4 construct: expressed in transfected cells; host or cells: HEK293
Summary of the method: as §1

T1 sequence (P48775 whole entry): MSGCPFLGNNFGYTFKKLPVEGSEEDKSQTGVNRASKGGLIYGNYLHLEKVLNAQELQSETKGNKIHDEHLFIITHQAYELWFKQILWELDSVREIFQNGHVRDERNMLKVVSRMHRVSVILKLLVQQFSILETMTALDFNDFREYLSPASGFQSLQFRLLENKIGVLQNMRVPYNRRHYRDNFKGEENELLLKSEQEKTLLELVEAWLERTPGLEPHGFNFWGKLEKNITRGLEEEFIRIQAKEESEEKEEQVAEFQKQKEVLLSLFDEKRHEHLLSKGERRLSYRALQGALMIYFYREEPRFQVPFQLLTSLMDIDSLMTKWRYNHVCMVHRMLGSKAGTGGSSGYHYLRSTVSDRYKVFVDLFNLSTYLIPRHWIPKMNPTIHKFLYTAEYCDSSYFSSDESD
T2 sequence (P48775 whole entry): as above
T3 sequence (P14902 whole entry): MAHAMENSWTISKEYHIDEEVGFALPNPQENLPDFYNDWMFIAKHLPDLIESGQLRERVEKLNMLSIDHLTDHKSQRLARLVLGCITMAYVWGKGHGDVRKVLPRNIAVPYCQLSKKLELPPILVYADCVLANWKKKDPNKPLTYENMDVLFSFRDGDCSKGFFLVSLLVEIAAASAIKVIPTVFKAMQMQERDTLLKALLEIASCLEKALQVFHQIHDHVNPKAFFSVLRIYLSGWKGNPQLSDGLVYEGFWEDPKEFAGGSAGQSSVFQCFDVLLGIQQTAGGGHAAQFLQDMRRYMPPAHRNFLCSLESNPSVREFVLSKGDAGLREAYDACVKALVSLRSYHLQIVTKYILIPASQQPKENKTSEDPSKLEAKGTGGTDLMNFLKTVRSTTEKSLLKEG
T4 sequence (P14902 whole entry): as above

Row | SMILES | IC50 [1] | IC50 (TDO) | IC50 (IDO1) | IC50 [2]
1 | CNC(=O)CNC(=O)N1CCC(C(C)(C)C(O)c2cc(Cl)cc3[nH]ncc23)CC1 (stereo not shown) [Compound P-0089, 4-(1-(6-chloro-1H-indazol-4-yl)-1-hydroxy-2-methylpropan-2-yl)-N-(2-(methylamino)-2-oxoethyl)piperidine-1-carboxamide] | 0.0001 to 10 µM | 0.0001 to 10 µM | 0.0001 to 10 µM | 0.0001 to 10 µM
2 | CC(C)(C1CCN(C(=O)NCCCF)CC1)C(O)c1cc(Cl)cc2[nH]ncc12 (stereo not shown) [Compound P-0090, 4-(1-(6-chloro-1H-indazol-4-yl)-1-hydroxy-2-methylpropan-2-yl)-N-(3-fluoropropyl)piperidine-1-carboxamide] | 0.0001 to 10 µM | 0.0001 to 10 µM | 0.0001 to 10 µM | > 10 µM
3 | CC(C)(C1CCN(C(=O)NCC(F)F)CC1)C(O)c1cc(Cl)cc2[nH]ncc12 (stereo not shown) [Compound P-0091, 4-(1-(6-chloro-1H-indazol-4-yl)-1-hydroxy-2-methylpropan-2-yl)-N-(2,2-difluoroethyl)piperidine-1-carboxamide] | 0.0001 to 10 µM | 0.0001 to 10 µM | 0.0001 to 10 µM | 0.0001 to 10 µM
4 | CC(C)(C1CCN(C(=O)NCC2CCC2)CC1)C(O)c1cc(Cl)cc2[nH]ncc12 (stereo not shown) [Compound P-0092, 4-(1-(6-chloro-1H-indazol-4-yl)-1-hydroxy-2-methylpropan-2-yl)-N-(cyclobutylmethyl)piperidine-1-carboxamide] | 0.0001 to 10 µM | 0.0001 to 10 µM | 0.0001 to 10 µM | 0.0001 to 10 µM
5 | CONC(=O)N1CCC(C(C)(C)C(O)c2cc(Cl)cc3[nH]ncc23)CC1 (stereo not shown) [Compound P-0093, 4-(1-(6-chloro-1H-indazol-4-yl)-1-hydroxy-2-methylpropan-2-yl)-N-methoxypiperidine-1-carboxamide] | 0.0001 to 10 µM | 0.0001 to 10 µM | 0.0001 to 10 µM | > 10 µM
6 | CC(C)(C1CCN(C(=O)NC2CC(F)(F)C2)CC1)C(O)c1cc(Cl)cc2[nH]ncc12 (stereo not shown) [Compound P-0094, 4-(1-(6-chloro-1H-indazol-4-yl)-1-hydroxy-2-methylpropan-2-yl)-N-(3,3-difluorocyclobutyl)piperidine-1-carboxamide] | 0.0001 to 10 µM | 0.0001 to 10 µM | 0.0001 to 10 µM | 0.0001 to 10 µM
7 | N#CC1CCN(c2cc(Cl)cc3cn[nH]c23)CC1 [Compound P-0097, 1-(5-chloro-1H-indazol-7-yl)piperidine-4-carbonitrile] | 0.0001 to 10 µM | 0.0001 to 10 µM | 0.0001 to 10 µM | 0.0001 to 10 µM
8 | CS(=O)(=O)N1CC=C(c2cc(Cl)cc3cn[nH]c23)CC1 [Compound P-0098, 5-chloro-7-(1-(methylsulfonyl)-1,2,3,6-tetrahydropyridin-4-yl)-1H-indazole] | 0.0001 to 10 µM | 0.0001 to 10 µM | 0.0001 to 10 µM | 0.0001 to 10 µM
9 | OC1(c2cc(Cl)cc3cn[nH]c23)CC(C2CC2)(C2CC2)C1 [Compound P-0108, 1-(5-chloro-1H-indazol-7-yl)-3,3-dicyclopropylcyclobutan-1-ol] | 0.0001 to 10 µM | 0.0001 to 10 µM | 0.0001 to 10 µM | 0.0001 to 10 µM
10 | CC(C)(C1CCN(C(=O)NCCF)CC1)C(O)c1cc(Cl)cc2[nH]ncc12 (stereo not shown) [Compound P-0110, 4-(1-(6-chloro-1H-indazol-4-yl)-1-hydroxy-2-methylpropan-2-yl)-N-(2-fluoroethyl)piperidine-1-carboxamide] | 0.0001 to 10 µM | 0.0001 to 10 µM | 0.0001 to 10 µM | > 10 µM
11 | CC(C)(C1CCN(C(=O)NC2CCC(F)(F)CC2)CC1)C(O)c1cc(Cl)cc2[nH]ncc12 (stereo not shown) [Compound P-0112, 4-(1-(6-chloro-1H-indazol-4-yl)-1-hydroxy-2-methylpropan-2-yl)-N-(4,4-difluorocyclohexyl)piperidine-1-carboxamide] | 0.0001 to 10 µM | 0.0001 to 10 µM | 0.0001 to 10 µM | 0.0001 to 10 µM
12 | CC(C)(C1CCN(C(=O)N[C@@H]2CCOC2)CC1)C(O)c1cc(Cl)cc2[nH]ncc12 (stereo partly drawn) [Compound P-0113, 4-(1-(6-chloro-1H-indazol-4-yl)-1-hydroxy-2-methylpropan-2-yl)-N-((R)-tetrahydrofuran-3-yl)piperidine-1-carboxamide] | 0.0001 to 10 µM | 0.0001 to 10 µM | 0.0001 to 10 µM | 0.0001 to 10 µM
13 | CC(C)(C1CCN(C(=O)N[C@H]2CCOC2)CC1)C(O)c1cc(Cl)cc2[nH]ncc12 (stereo partly drawn) [Compound P-0114, 4-(1-(6-chloro-1H-indazol-4-yl)-1-hydroxy-2-methylpropan-2-yl)-N-((S)-tetrahydrofuran-3-yl)piperidine-1-carboxamide] | 0.0001 to 10 µM | 0.0001 to 10 µM | 0.0001 to 10 µM | 0.0001 to 10 µM
14 | CC(C)(C1CCN(C(=O)NC[C@H]2CCCO2)CC1)C(O)c1cc(Cl)cc2[nH]ncc12 (stereo partly drawn) [Compound P-0115, 4-(1-(6-chloro-1H-indazol-4-yl)-1-hydroxy-2-methylpropan-2-yl)-N-(((R)-tetrahydrofuran-2-yl)methyl)piperidine-1-carboxamide] | 0.0001 to 10 µM | 0.0001 to 10 µM | 0.0001 to 10 µM | 0.0001 to 10 µM
15 | CC(C)(C1CCN(C(=O)NCc2ccc(C#N)nc2)CC1)C(O)c1cc(Cl)cc2[nH]ncc12 (stereo not shown) [Compound P-0116, 4-(1-(6-chloro-1H-indazol-4-yl)-1-hydroxy-2-methylpropan-2-yl)-N-((6-cyanopyridin-3-yl)methyl)piperidine-1-carboxamide] | 0.0001 to 10 µM | 0.0001 to 10 µM | 0.0001 to 10 µM | 0.0001 to 10 µM
16 | CC(C)(C1CCN(C(=O)NCc2ccc(F)cn2)CC1)C(O)c1cc(Cl)cc2[nH]ncc12 (stereo not shown) [Compound P-0117, 4-(1-(6-chloro-1H-indazol-4-yl)-1-hydroxy-2-methylpropan-2-yl)-N-((5-fluoropyridin-2-yl)methyl)piperidine-1-carboxamide] | 0.0001 to 10 µM | 0.0001 to 10 µM | 0.0001 to 10 µM | 0.0001 to 10 µM
17 | CC(C)(C1CCN(C(=O)NCc2ccc(C#N)cc2)CC1)C(O)c1cc(Cl)cc2[nH]ncc12 (stereo not shown) [Compound P-0118, 4-(1-(6-chloro-1H-indazol-4-yl)-1-hydroxy-2-methylpropan-2-yl)-N-(4-cyanobenzyl)piperidine-1-carboxamide] | 0.0001 to 10 µM | 0.0001 to 10 µM | 0.0001 to 10 µM | 0.0001 to 10 µM
18 | CC(C)(C1CCN(C(=O)NC2(C#N)CC2)CC1)C(O)c1cc(Cl)cc2[nH]ncc12 (stereo not shown) [Compound P-0119, 4-(1-(6-chloro-1H-indazol-4-yl)-1-hydroxy-2-methylpropan-2-yl)-N-(1-cyanocyclopropyl)piperidine-1-carboxamide] | 0.0001 to 10 µM | 0.0001 to 10 µM | 0.0001 to 10 µM | > 10 µM
19 | CC(C)(C1CCN(C(=O)Nc2ccc(C#N)nc2)CC1)[C@H](O)c1cc(Cl)cc2cn[nH]c12 [Compound P-0120, (S)-4-(1-(5-chloro-1H-indazol-7-yl)-1-hydroxy-2-methylpropan-2-yl)-N-(6-cyanopyridin-3-yl)piperidine-1-carboxamide] | 0.0001 to 10 µM | 0.0001 to 10 µM | 0.0001 to 10 µM | 0.0001 to 10 µM
20 | CCONC(=O)N1CCC(C(C)(C)[C@H](O)c2cc(Cl)cc3cn[nH]c23)CC1 [Compound P-0121, (S)-4-(1-(5-chloro-1H-indazol-7-yl)-1-hydroxy-2-methylpropan-2-yl)-N-ethoxypiperidine-1-carboxamide] | 0.0001 to 10 µM | 0.0001 to 10 µM | 0.0001 to 10 µM | 0.0001 to 10 µM
21 | CC(C)(C1CCN(C(=O)NO)CC1)[C@H](O)c1cc(Cl)cc2cn[nH]c12 [Compound P-0122, (S)-4-(1-(5-chloro-1H-indazol-7-yl)-1-hydroxy-2-methylpropan-2-yl)-N-hydroxypiperidine-1-carboxamide] | 0.0001 to 10 µM | 0.0001 to 10 µM | 0.0001 to 10 µM | 0.0001 to 10 µM
22 | CC(C)(C1CCN(C(=O)NOCc2ccccc2)CC1)[C@H](O)c1cc(Cl)cc2cn[nH]c12 [Compound P-0123, (S)-N-(benzyloxy)-4-(1-(5-chloro-1H-indazol-7-yl)-1-hydroxy-2-methylpropan-2-yl)piperidine-1-carboxamide] | 0.0001 to 10 µM | 0.0001 to 10 µM | 0.0001 to 10 µM | 0.0001 to 10 µM
23 | C[C@H](O)C(=O)N1CCC(C(C)(C)[C@H](O)c2cc(Cl)cc3cn[nH]c23)CC1 [Compound P-0124, (S)-1-(4-((S)-1-(5-chloro-1H-indazol-7-yl)-1-hydroxy-2-methylpropan-2-yl)piperidin-1-yl)-2-hydroxypropan-1-one] | 0.0001 to 10 µM | 0.0001 to 10 µM | 0.0001 to 10 µM | 0.0001 to 10 µM
24 | C[C@@H](N)C(=O)N1CCC(C(C)(C)[C@H](O)c2cc(Cl)cc3cn[nH]c23)CC1 [Compound P-0125, (R)-2-amino-1-(4-((S)-1-(5-chloro-1H-indazol-7-yl)-1-hydroxy-2-methylpropan-2-yl)piperidin-1-yl)propan-1-one] | 0.0001 to 10 µM | 0.0001 to 10 µM | 0.0001 to 10 µM | 0.0001 to 10 µM
25 | CC(C)(C1CCN(C(=O)CN)CC1)[C@H](O)c1cc(Cl)cc2cn[nH]c12 [Compound P-0126, (S)-2-amino-1-(4-(1-(5-chloro-1H-indazol-7-yl)-1-hydroxy-2-methylpropan-2-yl)piperidin-1-yl)ethan-1-one] | 0.0001 to 10 µM | 0.0001 to 10 µM | 0.0001 to 10 µM | 0.0001 to 10 µM
